Data: patent US20160355530A1, “HEPATITIS C INHIBITORS AND USES THEREOF” (AbbVie Inc., priority 2010, published 2016)
pEC50, pIC50: −log10 of the molar value. Where two headings read alike, the source gives them in different places.

Assays:
[1] = tested on: chimeric replicon with genotype 3a NS5B; test: microbe, parasite or virus in culture; format: cell-based, HCV genotype 3a; conditions: Hepatitis C virus, read-out: 3a chimera 5% FBS EC50
[2] = tested on: chimeric replicon with genotype 2b NS5B; test: microbe, parasite or virus in culture; format: cell-based, HCV genotype 2b; conditions: Hepatitis C virus, read-out: 2b chimera 5% FBS EC50
[3] = tested on: HCV 1b-BB7 subgenomic replicon; test: microbe, parasite or virus in culture; format: cell-based, HCV genotype 1b; conditions: Hepatitis C virus, stable replicon
[4] = tested on: HCV 1a-H77 transient subgenomic replicon in Huh-7 derived cell line; test: microbe, parasite or virus in culture; format: cell-based, HCV genotype 1a; conditions: Hepatitis C virus, Huh-7; transient replicon, 5% FBS; read-out: Transient Replicon 1a H77 5% FBS EC50
Experimental: (§1) In addition to the stable replicon inhibition assays, transient replicon assays were performed. Transient replicons are identical to the 1a-H77 and 1a-H77-C316Y constructs, except they lack the Neo gene, making it impossible to establish stable cell lines. A T7 Megascript RNA synthesis kit (Ambion) was used to transcribe the HCV subgenomic RNA. The HCV RNA was then precipitated with lithium chloride according to manufacturer's instructions. The HCV subgenomic replicon RNA was transfected via electroporation into a Huh-7 derived cell line as described (Middleton T, et al. J. Virological Methods 2007; 145(2): 137-145). Transfected cells were diluted and plated in 96 well plates at 5×10^3 cells per well in DMEM. Four hours post-transfection, the wells from one plate were harvested for luciferase measurement. This plate provides a measure of the amount of translatable input RNA, and therefore transfection efficiency. To the wells of the remaining plates, a 3-fold dilution series of test compounds was added in DMSO (0.5% DMSO final concentration), and plates were incubated at 37° C., 5% CO2 in a humidified incubator for 4 days. After this period, the media was removed and the plates were washed with 100 μL phosphate-buffered saline per well. For the luciferase assay, 30 μL of Passive Lysis buffer (Promega) was added to each well, and then the plates were incubated for 15 minutes with rocking to lyse the cells. Luciferin solution (100 μL, Promega) was added to each well, and luciferase activity was measured with a Victor II luminometer (Perkin-Elmer). The EC50 values were calculated using GraphPad Prism 4 software.

[5] = tested on: HCV 1a-H77-C316Y transient subgenomic replicon in Huh-7 derived cell line; test: microbe, parasite or virus in culture; format: cell-based, HCV genotype 1a; conditions: for pEC50: Hepatitis C virus, Huh-7, read-out: Transient Replicon 1a H77-C316Y 5% FBS EC50; for Transient Replicon Fold Resistance C316Y/1a: ratio of transient replicon EC50s, C316Y / 1a H77
Experimental: as §1

[6] = biological target: T1, HCV NS5B polymerase 1b BK strain (Hepatitis C virus genotype 1b, UniProt P26663); test: HCV NS5B polymerase enzymatic inhibition assay, strain 1b BK; format: biochemical; conditions: enzyme, strain 1b BK; read-out: HCV Polymerase Strain 1b BK IC50
T1 construct: six-histidine tag; made in house; host or cells: E. coli
T1 sequence (P26663 2420-2989): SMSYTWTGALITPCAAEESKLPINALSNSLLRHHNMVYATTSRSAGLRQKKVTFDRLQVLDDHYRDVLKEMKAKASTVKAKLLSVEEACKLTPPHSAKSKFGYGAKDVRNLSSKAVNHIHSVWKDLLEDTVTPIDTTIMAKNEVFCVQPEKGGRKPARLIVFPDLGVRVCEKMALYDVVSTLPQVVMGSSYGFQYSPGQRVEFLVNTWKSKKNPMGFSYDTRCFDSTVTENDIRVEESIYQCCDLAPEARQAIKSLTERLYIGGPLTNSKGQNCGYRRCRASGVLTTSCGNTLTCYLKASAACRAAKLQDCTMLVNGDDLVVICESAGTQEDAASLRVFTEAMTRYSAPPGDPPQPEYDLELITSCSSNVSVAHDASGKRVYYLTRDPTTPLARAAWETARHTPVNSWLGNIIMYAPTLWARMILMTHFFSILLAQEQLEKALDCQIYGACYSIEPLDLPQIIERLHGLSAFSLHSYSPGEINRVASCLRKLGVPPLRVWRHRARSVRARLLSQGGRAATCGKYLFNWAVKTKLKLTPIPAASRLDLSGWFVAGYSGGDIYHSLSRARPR
Outline: (§2)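 Recombinant NS5B (residues 1–570, His-tagged, E. coli-expressed) copied 5 nM of a 2.1 kb HCV 1b negative-strand 3′-end RNA template with 20 μM CTP, 20 μM ATP and 0.284 μM [3H]UTP for 3 h at 30 °C. Spermine-precipitated RNA was filter-captured and counted, and IC50 was fitted by nonlinear regression.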

[7] = tested on: HCV 1a-H77 subgenomic replicon; test: microbe, parasite or virus in culture; format: cell-based, HCV genotype 1a; conditions: Hepatitis C virus, stable replicon
[8] = tested on: chimeric replicon with 2a-J6CF-derived NS5B; test: microbe, parasite or virus in culture; format: cell-based, HCV genotype 2a; conditions: Hepatitis C virus, read-out: 2a chimera 5% FBS EC50
[9] = tested on: chimeric replicon with genotype 4a NS5B; test: microbe, parasite or virus in culture; format: cell-based, HCV genotype 4a; conditions: Hepatitis C virus, read-out: 4a chimera 5% FBS EC50
[10] = biological target: T2, HCV NS5B polymerase 1a-H77-C316Y (Hepatitis C virus genotype 1a, UniProt P27958, C2736Y); test: biochemical; parameters: species or system HCV genotype 1a
T2 construct: six-histidine tag; made in house; host or cells: E. coli
T2 sequence (P27958 2421-2990 C2736Y): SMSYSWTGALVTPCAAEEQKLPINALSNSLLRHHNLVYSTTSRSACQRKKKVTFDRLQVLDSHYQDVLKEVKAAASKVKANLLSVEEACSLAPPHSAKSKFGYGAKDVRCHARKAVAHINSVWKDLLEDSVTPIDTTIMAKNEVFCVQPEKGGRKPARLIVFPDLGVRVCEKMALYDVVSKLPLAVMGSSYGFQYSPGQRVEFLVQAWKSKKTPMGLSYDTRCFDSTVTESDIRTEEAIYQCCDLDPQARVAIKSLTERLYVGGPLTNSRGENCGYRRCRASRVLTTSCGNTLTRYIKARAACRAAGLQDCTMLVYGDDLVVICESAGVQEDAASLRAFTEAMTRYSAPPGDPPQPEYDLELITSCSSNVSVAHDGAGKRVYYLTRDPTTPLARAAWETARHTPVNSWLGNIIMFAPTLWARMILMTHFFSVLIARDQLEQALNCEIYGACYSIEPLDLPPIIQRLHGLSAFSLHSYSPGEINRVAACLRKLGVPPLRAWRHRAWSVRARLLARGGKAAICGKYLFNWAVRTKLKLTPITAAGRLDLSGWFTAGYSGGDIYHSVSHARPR
Outline: as §2

[11] = tested on: HCV NS5B polymerase 1a-H77-C316Y; test: biochemical; parameters: species or system HCV genotype 1a; conditions: ratio of enzyme IC50s, 1a H77-C316Y / 1a H77
Outline: as §2

[12] = biological target: T3, HCV NS5B polymerase 1a-H77 (Hepatitis C virus genotype 1a, UniProt P27958); test: biochemical; parameters: species or system HCV genotype 1a
T3 construct: six-histidine tag; made in house; host or cells: E. coli
T3 sequence (P27958 2421-2990): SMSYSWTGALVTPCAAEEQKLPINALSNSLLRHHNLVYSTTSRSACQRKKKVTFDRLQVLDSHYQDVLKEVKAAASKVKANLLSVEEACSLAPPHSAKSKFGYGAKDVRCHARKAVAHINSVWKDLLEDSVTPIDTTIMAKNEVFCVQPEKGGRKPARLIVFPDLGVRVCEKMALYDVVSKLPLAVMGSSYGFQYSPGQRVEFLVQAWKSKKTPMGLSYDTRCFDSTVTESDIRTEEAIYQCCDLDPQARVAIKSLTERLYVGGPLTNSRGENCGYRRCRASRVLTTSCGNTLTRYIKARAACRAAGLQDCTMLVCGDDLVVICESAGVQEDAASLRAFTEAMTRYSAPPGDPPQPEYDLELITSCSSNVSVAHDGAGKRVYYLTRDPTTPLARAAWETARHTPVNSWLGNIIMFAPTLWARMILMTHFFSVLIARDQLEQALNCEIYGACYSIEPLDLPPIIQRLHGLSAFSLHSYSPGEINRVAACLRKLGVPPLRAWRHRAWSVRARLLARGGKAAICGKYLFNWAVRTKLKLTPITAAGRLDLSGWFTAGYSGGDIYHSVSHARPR
Outline: as §2

[13] = strain 1b BB7, 5% FBS + 40% human plasma, read-out: 1b BB7 5% FBS + 40% Human Plasma EC50
[14] = strain 1b BB7, 5% FBS, no human plasma, read-out: 1b BB7 5% FBS EC50
[15] = strain 1b BB7, 5% FBS, read-out: 1b BB7 5% FBS EC50
[16] = 5% FBS, absence of human plasma, read-out: Stable Replicon 1a H77 5% FBS EC50
[17] = strain 1a H77, 5% FBS + 40% human plasma, read-out: 1a H77 5% FBS + 40% Human Plasma EC50
[18] = strain 1a H77, 5% FBS, no human plasma, read-out: 1a H77 5% FBS EC50
[19] = strain 1a H77, 5% FBS, read-out: 1a H77 5% FBS EC50
[20] = enzyme, strain 1a H77, read-out: HCV Polymerase Strain 1a H77 IC50

Structure (SMILES)	pEC50 [1]	pEC50 [2]	pEC50 [3, 13]	pEC50 [3, 14]	pEC50 [3, 15]	pEC50 [4]	pEC50 [5]	Transient Replicon Fold Resistance C316Y/1a [5] [fold]	pIC50 [6]	pEC50 [7, 16]	pEC50 [7, 17]	pEC50 [7, 18]	pEC50 [7, 19]	pEC50 [8]	pEC50 [9]	pIC50 [10]	C316Y/1a Fold Resistance [11] [fold]	pIC50 [12, 20]	pIC50 [12]
CC1NC(c2c(-c3ccc(F)cc3)oc3cc(N(CC[S+](C)[O-])S(C)(=O)=O)c(C4CC4)cc23)=NO1 (stereo not drawn) [Example 13, N-[5-cyclopropyl-2-(4-fluorophenyl)-3-(5-methyl-4,5-dihydro-1,2,4-oxadiazol-3-yl)-1-benzofuran-6-yl]-N-[2-(methylsulfinyl)ethyl]methanesulfonamide]	7.38	6.51	6.84	7.80	7.80	7.95	6.87	12	7.59	7.83	6.79	7.83	7.83	6.42	6.80	6.94	16	8.13	
CS(=O)(=O)N(CCCS(N)(=O)=O)c1cc2oc(-c3ccc(F)cc3)c(C3=NOCN3)c2cc1C1CC1 [Example 15, 3-{[5-cyclopropyl-3-(4,5-dihydro-1,2,4-oxadiazol-3-yl)-2-(4-fluorophenyl)-1-benzofuran-6-yl](methylsulfonyl)amino}propane-1-sulfonamide]	7.92	6.98	6.09	8.00	8.00	8.09	6.78	20	7.96	8.19	5.75	8.19	8.19	6.89	6.85	7.51	10		8.52
CS(=O)(=O)N(CCCCO)c1cc2oc(-c3ccc(F)cc3)c(C3=NOCN3)c2cc1C1CC1 [Example 16, N-[5-cyclopropyl-3-(4,5-dihydro-1,2,4-oxadiazol-3-yl)-2-(4-fluorophenyl)-1-benzofuran-6-yl]-N-(4-hydroxybutyl)methanesulfonamide]	8.26	7.22	5.66	8.60	8.60	8.59	7.36	17	7.74	8.42	6.39	8.42	8.42	7.36	7.21	7.46	12	8.52	
CC(C)CCN(c1cn2nc(-c3ccc(F)cc3)c(-c3ncc[nH]3)c2cc1C1CC1)S(C)(=O)=O [Example 17, N-[5-cyclopropyl-2-(4-fluorophenyl)-3-(1H-imidazol-2-yl)pyrazolo[1,5-a]pyridin-6-yl]-N-(3-methylbutyl)methanesulfonamide]	6.83	6.00	6.40	7.24	7.24	7.26	6.08	15	6.36	7.00	5.92	7.00	7.00	6.00	< 6.00	5.74	52	7.46	
